According to patent US4808580A, “Naphtho[1,2-b][1,4]thiazepin-4(5H)-ones and use thereof in treatment of ischemia and blood pressure lowering” (Hoffmann-La Roche Inc., priority 1987, dated 1989):
Counter-ions that a name gives are not always drawn.

test system: Guinea Pig Ileum; experiment: Guinea pig ileum assay - tonic contraction (K+-induced contraction of longitudinal muscle; calcium channel blocking activity); type: cell-based; conditions: Cavia porcellus
Method: GUINEA PIG ILEUM ASSAY--TONIC CONTRACTION
Male guinea-pigs weighing from 300-400 grams were stunned and bled. The abdomen was opened and 10-15 cm of terminal ileum was carefully removed and cleaned and placed in Tyrode's Solution of the following composition: NaCl (8 g/l), KCl (0.2 g/l), MgCl2 (0.2 g/l.), CaCl2 (0.2 g/l), NaH2 PO4 (0.05 g/l), NaHCO3 (1.0 g/l) and Glucose (1 g/l). The solution was maintained at 37° C. and gassed with 95% O2 and 5% CO2. Portions of the ileum were placed over a glass rod, a shallow incision was made the length of the mesenteric attachment just severing the outer-longitudinal muscle layer. The longitudinal muscle was separated from the underlying circular muscle by gentle dissection (Rang, H. P. Annals of N.Y. Academy of Science Vol. 144, page 756, (1964)). The tissue was fixed at one end to a tissue holder, the other end was connected by a thread to a force transducer and suspended in a muscle bath containing Tyrode's Solution maintained at 37° C. and gassed with 95% O2 and 5% CO2. An initial tension of 500 mg was applied and the tissue allowed to equilibrate for 60 minutes prior to the start of the study. During this period the tissue was washed every 16 minutes. Each preparation, at 16 minute intervals, was challenged with KCl sufficient to yield a bath K^+ concentration of 80 mMK for 2 minutes, then washed with fresh solution. The 16 minute interval between K^+ challenges was maintained throughout the study. Upon stabilization of the responses to the K^+ challenge the test compound (potential calcium entry antagonist) was introduced into the bath 2 minutes prior to and during the 2 minute exposure to K^+ after which the bath was cleared and washed with fresh solution. Logarithmically increasing doses (up to 10^-4 M) of the potential antagonist were administered as the study progressed.
The measure of compound's ability to inhibit the tonic contraction of muscle is a measure of its activity as a calcium channel blocking agent.

Row | Compound | IC50
1 | COc1ccc([C@@H]2Sc3ccc4ccccc4c3N(CCN(C)C)C(=O)[C@@H]2O)cc1 (relative stereo) [A, cis-rac-2,3-dihydro-3-hydroxy-5-[2-(dimethylamino)ethyl]-2-(4-methoxyphenyl)naphtho[2,1-b][1,4]thiazepin-4(5H)-one hydrochloride] | 0.4 µM
2 | COc1ccc([C@@H]2Sc3ccc4ccccc4c3N(CCN(C)C)C(=O)[C@@H]2OC(C)=O)cc1 (relative stereo) [B, cis-rac-3-(acetyloxy)-2,3-dihydro-5-[2-(dimethylamino)ethyl]-2-(4-methoxyphenyl)naphtho[2,1-b][1,4]thiazepin-4(5H)-one (E)-2-butendioate] | 0.45 µM
3 | COc1ccc([C@@H]2Sc3ccc4ccccc4c3N(CCN(C)C)C(=O)[C@@H]2O)cc1 [C, cis-(+)-2,3-dihydro-3-hydroxy-5-[2-(dimethylamino)ethyl]-2-(4-methoxyphenyl)naphtho[2,1-b][1,4]thiazepin-4(5H)-one hydrochloride semihydrate] | 0.23 µM
4 | COc1ccc([C@@H]2Sc3ccc4ccccc4c3N(CCN(C)C)C(=O)[C@@H]2OC(C)=O)cc1 [D, cis-(+)-3-(acetyloxy)-2,3-dihydro-5-[2-(dimethylamino)ethyl]-2-(4-methoxyphenyl)naphtho[2,1-b][1,4]thiazepin-4(5H)-one (E)-2-butendioate] | 0.39 µM
